The text below walks through data of PMC10110893, “[…]-derived synthetic cannabinoids inhibit T-type calcium channels with divergent effects on seizures in rodent models of epilepsy” (Frontiers in Physiology, 2023).

The target in one series is T1, human Cav3.1 (Homo sapiens, UniProt O43497).
T1 construct: expressed in transfected cells; host or cells: HEK293 FlpIn T-Rex cells (Invitrogen)
The series can be described thus: FLIPR calcium flux assay, Cav3.1. It counts as cell-based. As for the experimental part: HEK293 FlpIn T-Rex cells (Invitrogen, CA, United States) stably expressing human Cav3.1, Cav3.2, or Cav3.3 were maintained in Dulbecco’s Modified Eagle Medium (DMEM) supplemented with 10% foetal bovine serum (FBS), 1% penicillin-streptomycin (P/S) at 37°C, and 5% CO2 as previously described ([Bladen et al., 2021]; [Udoh et al., 2022]). Hygromycin (80 μg/mL) and blasticidin (15 μg/mL) were used as selection antibiotics and cells were passaged at 80% confluency. For experiments, cells were resuspended in Leibovitz’s L-15 media (containing 1% FBS, 1% P/S, 15 mM glucose, 2 μg/mL tetracycline), plated in black, clear-bottomed poly-D-lysine-coated 96-well plates (90 μL) (Corning, NY, United States), and incubated overnight in ambient air at 37°C. All compounds tested in cellular assays were prepared as stock solutions in DMSO and final DMSO concentration was 0.1%.
Intracellular calcium flux was measured using a fluorometric imaging plate-reader (FLIPR) Calcium 5 Assay Kit and FlexStation 3 Microplate Reader (Molecular Devices, San Jose, United States). Calcium 5 dye (90 μL) prepared in low potassium HBSS (Thermo Fisher Scientific) containing (in mM) 145 NaCl, 22 HEPES, 0.338 Na2HPO4, 4.17 NaHCO3, 0.441 KH2PO4, 0.407 MgSO4, 0.493 MgCl2, 1.26 CaCl2, 5.56 glucose, and […] with pH 7.4 was applied to each well and incubated for 1 h at 37°C, ambient air prior to testing.
Fluorescence readings were taken at 2 s intervals (λ excitation = 485 nm, λ emission = 525 nm). Following 2 min baseline reading, 20 μL of SB2193, SB2193F, or NNC 55-0396 (10 nM—10 μM) was added to cells and read for 5 min, then CaCl2 (10 mM) was added and read for 3 min. Baseline fluorescence averaged over the 20 s interval preceding CaCl2 addition was subtracted and normalized to the vehicle response. Changes in fluorescence were measured in relative fluorescence units (RFU). All compounds were assayed in ≥ five independent experiments (n = 5–8) performed in duplicate. Order of compound addition and location on the plate were varied between replicates. Data was fit to a four-parameter non-linear dose-response curve using GraphPad Prism 8.2.0 software (La Jolla, United States) to determine IC50 values.

For the next series, the target named is T2, human Cav3.2 (Homo sapiens, UniProt O95180).
T2 construct: expressed in transfected cells; host or cells: HEK293 FlpIn T-Rex cells (Invitrogen)
T2 sequence (O95180 whole entry): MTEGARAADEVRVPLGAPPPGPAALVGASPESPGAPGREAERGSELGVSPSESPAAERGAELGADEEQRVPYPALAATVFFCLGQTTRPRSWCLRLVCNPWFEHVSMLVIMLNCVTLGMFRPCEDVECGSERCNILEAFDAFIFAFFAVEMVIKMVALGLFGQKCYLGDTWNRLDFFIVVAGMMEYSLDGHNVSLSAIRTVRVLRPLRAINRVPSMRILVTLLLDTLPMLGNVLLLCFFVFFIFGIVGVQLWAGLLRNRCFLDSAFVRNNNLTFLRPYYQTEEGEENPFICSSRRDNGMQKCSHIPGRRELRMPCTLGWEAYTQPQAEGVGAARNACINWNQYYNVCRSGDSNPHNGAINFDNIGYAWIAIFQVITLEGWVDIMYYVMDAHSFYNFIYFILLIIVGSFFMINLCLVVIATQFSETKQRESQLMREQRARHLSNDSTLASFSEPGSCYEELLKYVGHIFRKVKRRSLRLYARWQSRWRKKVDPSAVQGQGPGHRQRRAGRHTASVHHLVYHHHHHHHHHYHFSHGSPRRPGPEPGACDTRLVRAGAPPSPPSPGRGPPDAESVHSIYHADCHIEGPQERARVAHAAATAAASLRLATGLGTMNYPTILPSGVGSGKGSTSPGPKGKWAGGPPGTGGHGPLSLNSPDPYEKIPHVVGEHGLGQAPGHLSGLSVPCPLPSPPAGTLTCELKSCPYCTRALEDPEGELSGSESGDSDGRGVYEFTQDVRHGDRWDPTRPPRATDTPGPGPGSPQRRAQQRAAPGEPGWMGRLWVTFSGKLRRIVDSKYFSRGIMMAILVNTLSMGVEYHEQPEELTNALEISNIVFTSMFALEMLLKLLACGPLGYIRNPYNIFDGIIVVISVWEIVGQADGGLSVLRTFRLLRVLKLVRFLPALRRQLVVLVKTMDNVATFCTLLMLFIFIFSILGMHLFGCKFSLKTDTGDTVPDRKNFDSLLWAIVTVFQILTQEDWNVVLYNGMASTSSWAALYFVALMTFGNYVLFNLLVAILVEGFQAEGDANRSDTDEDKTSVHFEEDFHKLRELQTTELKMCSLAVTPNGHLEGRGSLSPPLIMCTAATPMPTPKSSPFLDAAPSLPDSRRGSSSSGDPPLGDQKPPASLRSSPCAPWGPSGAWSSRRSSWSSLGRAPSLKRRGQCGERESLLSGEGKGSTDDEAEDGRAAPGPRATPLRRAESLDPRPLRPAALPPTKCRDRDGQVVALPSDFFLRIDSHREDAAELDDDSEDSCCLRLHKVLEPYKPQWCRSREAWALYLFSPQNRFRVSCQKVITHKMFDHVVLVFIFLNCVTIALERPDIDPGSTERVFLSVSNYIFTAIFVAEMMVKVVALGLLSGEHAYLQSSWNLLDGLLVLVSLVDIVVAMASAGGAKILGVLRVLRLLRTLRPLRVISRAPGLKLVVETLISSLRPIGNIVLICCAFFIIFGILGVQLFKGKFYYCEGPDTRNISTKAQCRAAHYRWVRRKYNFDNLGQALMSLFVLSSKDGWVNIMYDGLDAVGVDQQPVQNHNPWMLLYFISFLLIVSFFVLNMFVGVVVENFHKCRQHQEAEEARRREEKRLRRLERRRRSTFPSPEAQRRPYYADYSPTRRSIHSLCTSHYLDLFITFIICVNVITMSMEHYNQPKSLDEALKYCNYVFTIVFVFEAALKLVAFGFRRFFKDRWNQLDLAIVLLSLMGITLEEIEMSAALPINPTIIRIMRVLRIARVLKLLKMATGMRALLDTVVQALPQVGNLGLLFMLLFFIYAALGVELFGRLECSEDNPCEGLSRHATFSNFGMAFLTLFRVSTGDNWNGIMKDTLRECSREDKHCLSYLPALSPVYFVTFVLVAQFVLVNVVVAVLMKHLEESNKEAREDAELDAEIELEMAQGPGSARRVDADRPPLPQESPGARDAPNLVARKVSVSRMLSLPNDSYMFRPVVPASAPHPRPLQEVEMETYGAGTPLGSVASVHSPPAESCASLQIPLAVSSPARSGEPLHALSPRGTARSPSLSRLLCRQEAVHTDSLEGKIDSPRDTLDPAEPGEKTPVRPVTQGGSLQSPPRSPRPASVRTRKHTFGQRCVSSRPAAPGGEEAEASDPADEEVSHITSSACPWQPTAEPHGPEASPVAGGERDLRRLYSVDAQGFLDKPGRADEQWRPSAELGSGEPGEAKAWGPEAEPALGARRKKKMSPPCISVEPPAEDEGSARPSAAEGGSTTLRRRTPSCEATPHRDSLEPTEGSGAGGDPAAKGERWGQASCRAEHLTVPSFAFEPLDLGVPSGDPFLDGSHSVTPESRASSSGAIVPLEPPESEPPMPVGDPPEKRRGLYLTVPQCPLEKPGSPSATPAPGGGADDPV
The series can be described thus: FLIPR calcium flux assay, Cav3.2. The class given is cell-based.

Series [1] can be described thus: Pharmacokinetics in mouse plasma and brain after single i.p. injection. The class given is in vivo. The settings on record: both sexes, 10 mg/kg i.p.; for AUC: wildtype F1, mouse, in vivo, 10 mg/kg. How it is done: SB2193 and SB2193F were prepared in ethanol-Tween 80%–0.9% saline (1:1:18 ratio) and valproic acid in 0.9% saline. All doses were completely soluble in this vehicle except for the 100 mg/kg SB2193 dose, which was a suspension.
Male and female wildtype F1 mice aged 21–28 days postnatal received a single i. p. injection of 10 mg/kg SB2193 or SB2193F. At selected timepoints (15–240 min), mice were anesthetised with isoflurane, blood was collected via cardiac puncture and whole brains were harvested. Brains were snap frozen on dry ice, and blood plasma was isolated via centrifugation (4,000 g for 10 min, 4^○C). Brain and plasma samples were stored at −80°C until assayed.
(§1) Plasma samples (50 μL) were spiked with an internal standard (diazepam) and vortexed with 1 M NaOH (50 μL) and methyl tert-butyl ether (1 mL) to achieve protein precipitation. The organic layer was isolated by centrifugation (4,000 g for 3 min) before being frozen for 60 min at −80°C, evaporated to dryness using N2, and reconstituted in 30% acetonitrile and 0.1% formic acid in water for analysis. Brain hemispheres were homogenised in a 10x w/v 1:1 methanol-water solution using a Biospec Tissue-Tearor (Bartlesville, United States) and centrifuged at 20,000 g for 30 min at 4°C. Supernatant (100 μL) was collected and prepared following the same method as plasma.
SB2193 and SB2193F concentrations in brain and plasma samples were assessed by high performance liquid chromatography-tandem mass spectrometry (HPLC-MS/MS) using a Shimadzu Nexera liquid chromatograph coupled with a Shimadzu 8,030 triple quadrupole mass spectrometer (Kyoto, Japan). Samples were run through a Zorbax C18 HPLC Column equipped with a Zorbax Eclipse XDB-C8 guard column (2.1 × 50 mm, 3.5 μm particle size; Agilent, Santa Clara, United States) with an injection volume of 10 μL using a gradient elution. Mobile phases of acetonitrile and 0.1% formic acid in water were delivered at a flow rate of 0.6 mL/min over 4.16 min, with a stepwise adjustment of mobile phase concentration gradient over time to optimise ion separation.
Quantification was achieved by comparing experimental samples to plasma and brain standards prepared with known concentrations of SB2193 or SB2193F. Samples were quantified against a 7-point standard curve (R ^2 > 0.98 for both analytes).
Concentrations of SB2193 or SB2193F in plasma and brain at each timepoint were averaged and concentration-time curves were generated using GraphPad Prism. Pharmacokinetic parameters were calculated using non-compartmental analysis. The linear-log trapezoidal method was used to calculate drug exposure (area under the curve, AUC) using equations previously described ([Hawkins et al., 2017]).

Series [2] is described as follows: Brain concentration after sub-chronic administration in chow. The settings on record: 5,000 mg/kg chow ad libitum P18–23, male and female mice, n = 10. The class given is in vivo, mouse. How it is done: as §1
SB2193 and SB2193F concentrations in brain and plasma samples were assessed by high performance liquid chromatography-tandem mass spectrometry (HPLC-MS/MS) using a Shimadzu Nexera liquid chromatograph coupled with a Shimadzu 8,030 triple quadrupole mass spectrometer (Kyoto, Japan). […]
Quantification was achieved by comparing experimental samples to plasma and brain standards prepared with known concentrations of SB2193 or SB2193F. Samples were quantified against a 7-point standard curve (R ^2 > 0.98 for both analytes). […]

In another series the test system is T-type channels. Details: method as in Kevin et al., 2022. The settings on record: single 10 μM concentration, FLIPR calcium flux and whole-cell patch clamp, ref Kevin et al., 2022; cited from earlier work.
In series [3] the test system is cannabinoid CB1 receptors. Details: method as in Kevin et al., 2022. The settings on record: ref Kevin et al., 2022; cited from earlier work.
Where [4] appears, read: wildtype F1, in vivo, ip, mouse plasma.

Read-outs that look alike come from different tables or passages of the source. Some results are limits rather than exact numbers.

T1 sequence (O43497 whole entry): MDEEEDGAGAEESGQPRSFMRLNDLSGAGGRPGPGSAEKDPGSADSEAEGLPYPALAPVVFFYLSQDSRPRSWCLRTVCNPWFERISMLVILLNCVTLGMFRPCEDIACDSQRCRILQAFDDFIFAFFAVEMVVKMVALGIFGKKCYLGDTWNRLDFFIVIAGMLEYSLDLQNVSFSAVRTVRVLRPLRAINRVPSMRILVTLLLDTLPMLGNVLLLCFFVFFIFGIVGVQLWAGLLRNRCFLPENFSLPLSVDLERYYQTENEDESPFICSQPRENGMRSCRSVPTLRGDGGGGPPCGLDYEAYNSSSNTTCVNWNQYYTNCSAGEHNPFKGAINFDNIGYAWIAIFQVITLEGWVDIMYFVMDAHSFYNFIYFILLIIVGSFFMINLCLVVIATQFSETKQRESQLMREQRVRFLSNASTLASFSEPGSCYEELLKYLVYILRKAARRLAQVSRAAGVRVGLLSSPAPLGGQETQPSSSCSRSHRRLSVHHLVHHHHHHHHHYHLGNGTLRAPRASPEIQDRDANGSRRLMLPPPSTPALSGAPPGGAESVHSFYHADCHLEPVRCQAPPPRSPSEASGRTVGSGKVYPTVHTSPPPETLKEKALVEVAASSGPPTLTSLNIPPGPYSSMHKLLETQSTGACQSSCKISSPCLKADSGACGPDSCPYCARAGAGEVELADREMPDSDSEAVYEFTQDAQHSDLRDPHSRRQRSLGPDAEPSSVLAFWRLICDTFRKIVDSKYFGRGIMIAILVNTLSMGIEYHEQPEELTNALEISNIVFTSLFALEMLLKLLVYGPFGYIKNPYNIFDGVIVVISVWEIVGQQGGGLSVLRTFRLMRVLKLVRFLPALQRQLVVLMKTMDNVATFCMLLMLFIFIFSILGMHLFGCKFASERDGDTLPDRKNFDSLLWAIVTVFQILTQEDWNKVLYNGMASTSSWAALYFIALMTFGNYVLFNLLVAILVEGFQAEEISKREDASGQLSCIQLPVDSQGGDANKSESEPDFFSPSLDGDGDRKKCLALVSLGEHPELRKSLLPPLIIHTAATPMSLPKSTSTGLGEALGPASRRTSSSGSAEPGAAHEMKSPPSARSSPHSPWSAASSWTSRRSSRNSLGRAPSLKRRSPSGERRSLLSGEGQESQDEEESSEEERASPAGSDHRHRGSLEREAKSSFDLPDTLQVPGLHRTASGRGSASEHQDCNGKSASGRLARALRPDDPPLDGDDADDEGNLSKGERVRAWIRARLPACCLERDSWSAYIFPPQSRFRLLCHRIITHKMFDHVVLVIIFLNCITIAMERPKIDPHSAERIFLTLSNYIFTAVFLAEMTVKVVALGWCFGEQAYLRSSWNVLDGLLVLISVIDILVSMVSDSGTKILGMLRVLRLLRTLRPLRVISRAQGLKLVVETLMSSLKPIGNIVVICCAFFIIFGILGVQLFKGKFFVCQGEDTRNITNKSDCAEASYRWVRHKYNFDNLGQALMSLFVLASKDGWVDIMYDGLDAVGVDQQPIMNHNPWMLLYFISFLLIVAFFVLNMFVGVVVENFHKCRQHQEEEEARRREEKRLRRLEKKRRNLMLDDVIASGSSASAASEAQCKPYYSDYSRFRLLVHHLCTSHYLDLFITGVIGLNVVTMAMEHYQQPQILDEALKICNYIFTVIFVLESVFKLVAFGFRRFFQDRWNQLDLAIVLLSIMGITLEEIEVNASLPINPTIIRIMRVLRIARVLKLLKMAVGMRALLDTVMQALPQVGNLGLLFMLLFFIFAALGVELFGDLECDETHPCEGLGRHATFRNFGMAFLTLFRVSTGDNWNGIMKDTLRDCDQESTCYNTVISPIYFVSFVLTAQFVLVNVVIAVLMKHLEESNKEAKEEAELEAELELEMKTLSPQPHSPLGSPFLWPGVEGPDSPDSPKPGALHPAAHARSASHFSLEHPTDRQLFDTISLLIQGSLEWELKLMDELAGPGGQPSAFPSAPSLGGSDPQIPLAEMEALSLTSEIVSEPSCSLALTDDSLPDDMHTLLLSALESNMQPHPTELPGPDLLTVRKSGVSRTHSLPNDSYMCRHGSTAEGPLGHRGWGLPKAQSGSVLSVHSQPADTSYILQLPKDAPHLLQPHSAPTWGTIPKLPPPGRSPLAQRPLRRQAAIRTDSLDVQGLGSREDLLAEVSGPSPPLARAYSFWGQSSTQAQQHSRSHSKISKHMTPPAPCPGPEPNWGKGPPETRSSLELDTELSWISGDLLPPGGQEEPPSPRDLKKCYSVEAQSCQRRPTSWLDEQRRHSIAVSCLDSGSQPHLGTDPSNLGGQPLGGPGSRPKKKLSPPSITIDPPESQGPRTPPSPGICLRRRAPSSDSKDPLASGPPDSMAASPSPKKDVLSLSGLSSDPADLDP
Protocol for human Cav3.2: Intracellular calcium flux was measured using a fluorometric imaging plate-reader (FLIPR) Calcium 5 Assay Kit and FlexStation 3 Microplate Reader (Molecular Devices, San Jose, United States). […]
Fluorescence readings were taken at 2 s intervals (λ excitation = 485 nm, λ emission = 525 nm). […] Baseline fluorescence averaged over the 20 s interval preceding CaCl2 addition was subtracted and normalized to the vehicle response. Changes in fluorescence were measured in relative fluorescence units (RFU). […]

Take `CCCCCn1cc(C(=O)N2CCN(C(=O)OC(C)(C)C)CC2)c2ccccc21` [SB2193]: the IC50 (usually the concentration that gives 50% inhibition) amounted to 0.75 µM at human Cav3.1 and 5.9 µM at human Cav3.2. Further, the time to peak (Tmax) – broadly, the time at which the peak concentration occurs – in series [1] (setting [4]) is not above 15 min; in series [1] (wildtype F1, ip, mouse brain), not above 15 min. For the same compound, the half-life (as a rule, the time in which the quantity being followed falls by half) in series [1] (setting [4]) amounted to 29 min; in series [1] (wildtype F1, ip, mouse brain), 28 min. Also, the Cmax in series [1] (wildtype F1, in vivo, ip, mouse plasma, read-out: Cmax) was found to be 750 ± 50 nM; in series [1] (wildtype F1, in vivo, ip, mouse plasma, read-out: Cmax (μg/mL)), 0.3 ± 0.02 µg/mL; in series [1] (wildtype F1, ip, mouse brain, read-out: Cmax), 3000 ± 1000 nM; in series [1] (wildtype F1, ip, mouse brain, read-out: Cmax (μg/mL)) it was 1.2 ± 0.4 µg/mL. The Kp in series [1] (wildtype F1, in vivo, ip, mouse, read-out: brain-plasma ratio) was found to be 2.7. Further, the AUC – broadly, the area under the concentration-time curve, a measure of exposure – in series [1] (ip, mouse brain, brain concentration converted assuming density of 1 g/mL) is 583 ng·h/mL; in series [1] (ip, mouse plasma), 217 ng·h/mL. The compound also had a brain concentration in series [2] of 1700 ± 600 nM. Further, in the series with T-type channels, the “inhibition of T-type channels” value is “strongly inhibit”. Moreover, the “activity at cannabinoid CB1 receptors” value in series [3] is on record as “minimal activity”.
